What was measured:
[1] = tested on: Puccinia recondita f. sp. tritici; assay: Test B: preventive spray on wheat seedlings, wheat leaf rust; assay type: in vivo; details: for pest or weed control at 10 ppm: Puccinia recondita, 192 h, Rate 10 ppm, read-out: Test B disease control rating
Excerpt: (§1) General protocol for preparing test suspensions for Tests A-F: the test compounds were first dissolved in acetone in an amount equal to 3% of the final volume and then suspended at the desired concentration (in ppm) in acetone and purified water (50/50 mix by volume) containing 250 ppm of the surfactant PEG400 (polyhydric alcohol esters). The resulting test suspensions were then used in Tests A-F.
The test solution was sprayed to the point of run-off on wheat seedlings. The following day the seedlings were inoculated with a spore suspension of Puccinia recondita f. sp. tritici (the causal agent of wheat leaf rust) and incubated in a saturated atmosphere at 20° C. for 24 h, and then moved to a growth chamber at 20° C. for 7 days, after which time disease ratings were made.
(§2) A rating of 100 indicates 100% disease control and a rating of 0 indicates no disease control (relative to the controls). A dash (-) indicates the compound was not tested.

Phakopsora pachyrhizi = assay: Test D: preventive spray on soybean seedlings, Asian soybean rust; assay type: in vivo; details: for pest or weed control at 10 ppm: Phakopsora pachyrhizi, 216 h, Rate 10 ppm, read-out: Test D disease control rating
Excerpt: as §1
The test solution was sprayed to the point of run-off on soybean seedlings. The following day the seedlings were inoculated with a spore suspension of Phakopsora pachyrhizi (the causal agent of Asian soybean rust) and incubated in a saturated atmosphere at 22° C. for 24 h and then moved to a growth chamber at 22° C. for 8 days, after which time visual disease ratings were made.
as §2

Alternaria solani = assay: Test F: preventive spray on tomato seedlings, tomato early blight; assay type: in vivo; details: Rate 250 ppm
Excerpt: as §1
(§3) The test suspension was sprayed to the point of run-off on tomato seedlings. The following day the seedlings were inoculated with a spore suspension of Alternaria solani (the causal agent of tomato early blight) and incubated in a saturated atmosphere at 27° C. for 48 h, and then moved to a growth chamber at 20° C. for 3 days, after which time visual disease ratings were made.
as §2

Botrytis cinerea = assay: Test E: preventive spray on tomato seedlings, tomato Botrytis; assay type: in vivo; details: Rate 250 ppm
Excerpt: as §1
as §3, with “Botrytis cinerea” for “Alternaria solani”, “Botrytis)” for “early blight)”, “20°” for “27°”, “24°” for “20°”
as §2

[2] = tested on: Blumeria graminis f. sp. tritici; assay: Test C: preventive spray on wheat seedlings, wheat powdery mildew; assay type: in vivo; details: Rate 250 ppm
Excerpt: as §1
The test suspension was sprayed to the point of run-off on wheat seedlings. The following day the seedlings were inoculated with a spore dust of Blumeria graminis f. sp. tritici, (also known as Erysiphe graminis f. sp. tritici, the causal agent of wheat powdery mildew) and incubated in a growth chamber at 20° C. for 8 days, after which time visual disease ratings were made.
as §2

Zymoseptoria tritici = assay: Test A: preventive spray on wheat seedlings, wheat leaf blotch; assay type: in vivo; details: Rate 250 ppm
Excerpt: as §1
The test solution was sprayed to the point of run-off on wheat seedlings. The following day the seedlings were inoculated with a spore suspension of Zymoseptoria tritici (the causal agent of wheat leaf blotch) and incubated in a saturated atmosphere at 24° C. for 48 h, and then moved to a growth chamber at 20° C. for 17 days, after which time disease ratings were made.
as §2

CO/N=C(\C)c1cc(F)c(-n2ncc(-c3ccc(C)c(CNC(=O)OC)c3)n2)c(F)c1 [Compound 142, methyl (E)-N-[[5-[2-[2,6-difluoro-4-[1-(methoxyimino)ethyl]phenyl]-2H-1,2,3-triazol-4-yl]-2-methylphenyl]methyl]carbamate]
pest or weed control at 10 ppm [1]: 86%
pest or weed control at 10 ppm (Phakopsora pachyrhizi): 100%
melting point: 104 to 108 °C

COC(=O)NNc1cc(-c2ccn(-c3c(F)cc(Cl)cc3F)n2)ccc1C [Compound 153]
pest or weed control at 10 ppm [1]: 68%
pest or weed control at 10 ppm (Phakopsora pachyrhizi): 91%
melting point: 153 to 156 °C

COC(=O)NCc1cc(-c2cn(-c3c(F)cc(F)cc3Cl)nn2)ccc1C [compound 122]
Test B disease control rating ([1]; Rate 250 ppm): 99%
Test D disease control rating (Phakopsora pachyrhizi; Rate 250 ppm): 100%
Test F disease control rating (Alternaria solani): 0%
Test E disease control rating (Botrytis cinerea): 0%
Test C disease control rating [2]: 0%
Test A disease control rating (Zymoseptoria tritici): 71%

From patent US20230165251A1, “SUBSTITUTED TOLYL FUNGICIDES AND THEIR MIXTURES” (FMC Corporation, priority 2020, published 2023)
